The record followed here is BindingDB's records for doi:10.7270/Q28G8J4C (Broad Institute, 2009).

In this test the target is T1, POsterior Segregation (Caenorhabditis elegans, UniProt G5EF15).
T1 sequence (G5EF15 whole entry): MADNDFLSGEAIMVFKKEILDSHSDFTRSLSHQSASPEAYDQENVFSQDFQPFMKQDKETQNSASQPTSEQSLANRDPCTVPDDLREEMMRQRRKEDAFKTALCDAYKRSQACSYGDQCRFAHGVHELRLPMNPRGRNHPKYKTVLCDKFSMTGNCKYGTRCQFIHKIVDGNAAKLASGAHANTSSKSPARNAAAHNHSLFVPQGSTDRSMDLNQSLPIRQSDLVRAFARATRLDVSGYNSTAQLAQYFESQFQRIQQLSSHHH
The test can be described thus: disruptors of C. elegans POS-1 RNA interaction – biochemical, fluorescence polarization, dose response (AID 1964). A general note: Fluorescence polarisation rises when a labelled molecule tumbles more slowly, as on binding a larger partner.

Each structure is given as a SMILES string. Where a name gives a salt, the structure may show the parent alone.

Usually EC50 stands for the concentration needed to bring the measured effect to its halfway point. Low readings indicate higher potency in that assay, high ones lower potency in that assay. With `O=[N+]([O-])c1cc([CH+][N-]n2c(O)csc2=S)ccc1Cl` [3-[(4-chloranyl-3-nitro-phenyl)methylideneamino]-2-sulfanylidene-1,3-thiazolidin-4-one], a half-maximal response (EC50) required 18.6 µM.
The result for `CCOc1cc(C=C2SC(Nc3ccc(CC)cc3)=NC2=O)ccc1OCC(=O)O` [2-[2-ethoxy-4-[(Z)-[2-(4-ethylanilino)-4-oxo-1,3-thiazol-5-ylidene]methyl]phenoxy]acetic acid] reads 25.6 µM; that for `CCCCOc1cccc(C2C(C(=O)c3ccc(C)o3)C(=O)C(=O)N2c2nnc(C)s2)c1` (stereo not drawn) [2-(3-butoxyphenyl)-3-(5-methylfuran-2-yl)carbonyl-1-(5-methyl-1,3,4-thiadiazol-2-yl)-4-oxidanyl-2H-pyrrol-5-one], 102 µM.
As to `CSc1nncc(C(C)N=Nc2ccccc2)n1` (stereo not drawn) [1-[3-(methylsulfanyl)-1,2,4-triazin-5-yl]ethanone phenylhydrazone], the EC50 was found to be 41.3 µM.
In the case of `O=C1C=CC(/C=C/c2nc(O)c([N+](=O)[O-])c(=O)[nH]2)C=C1O` (stereo not drawn) [SMR000524347] it was 250 µM; in that of `O=C(N[N-][CH+]c1cc([N+](=O)[O-])ccc1N1CCCC1)c1ccccn1` [MLS000684285], 149 µM; in that of `COc1cc(C2C3=C(CC(C)(C)CC3=O)OC(=N)C2C#N)ccc1OCCN1CCOCC1` (stereo not drawn) [MLS000779948], more than 300 µM.
`C=c1cc(O)c(CN(C)C)c2oc(=Cc3ccco3)c(O)c12` [(2Z)-7-[(dimethylamino)methyl]-2-(furan-2-ylmethylidene)-6-hydroxy-4-methyl-1-benzofuran-3-one] had an EC50 of 32.1 µM.
`CCCN1CCC2=C(C#N)C(=N)C(C#N)(C#N)C(c3cc(OC)ccc3OC)C2C1` (stereo not drawn) [6-Amino-8-(2,5-dimethoxy-phenyl)-2-propyl-2,3,8,8a-tetrahydro-1H-isoquinoline-5,7,7-tricarbonitrile]: the concentration for a half-maximal effect (EC50) was found to be 27.9 µM.
The compound `CSc1ccc(C2C(C(=O)c3ccco3)C(=O)C(=O)N2c2nnc(SC)s2)cc1` (stereo not drawn) [3-(furan-2-carbonyl)-4-hydroxy-2-(4-methylsulfanylphenyl)-1-(5-methylsulfanyl-1,3,4-thiadiazol-2-yl)-2H-pyrrol-5-one] came in with an EC50 of 6.79 µM.
`Cc1[nH]n(C(N)=S)c(=O)c1N=Nc1cccc(C(=O)O)c1` [3-[(1-carbamothioyl-3-methyl-5-oxo-4H-pyrazol-4-yl)diazenyl]benzoic acid] had a 50% effective concentration (EC50) of 35.1 µM.
The result for `c1ccc(C2=NNC(c3ccccn3)N=N2)nc1` (stereo not drawn) [SMR000549436] reads 25.3 µM; that for `CCCSc1nnc(N2C(=O)C(=O)C(C(=O)c3ccco3)C2c2ccccc2F)s1` (stereo not drawn) [2-(2-fluorophenyl)-3-(furan-2-carbonyl)-4-hydroxy-1-(5-propylsulfanyl-1,3,4-thiadiazol-2-yl)-2H-pyrrol-5-one], more than 300 µM; that for `COc1ccccc1-n1c(O)c2n(-c3ccc(C)cc3)[nH]c(C(=O)c3ccccc3)c-2c1=O`, 13.7 µM.
In the case of `O=C(O)c1ccc(NN=CC2=C(N3CCOCC3)C(=Cc3ccccc3)CC2)cc1` [4-[2-[[(3Z)-2-(4-morpholinyl)-3-(phenylmethylene)-1-cyclopentenyl]methylidene]hydrazinyl]benzoic acid] it was 176 µM; in that of `CN(C)c1ccc(O)c2c1CC1CC3C(N(C)C)C(=O)C(C(N)=O)C(=O)[C@@]3(O)C(=O)C1C2=O` (stereo partly drawn) [(2E,12aS)-2-[azanyl(oxidanyl)methylidene]-4,7-bis(dimethylamino)-10,11,12a-tris(oxidanyl)-4a,5,5a,6-tetrahydro-4H-tetracene-1,3,12-trione;hydrochloride], more than 300 µM.
Consider `COC1=CC(CN=Nc2[nH]c(=O)nnc2C)C=C([N+](=O)[O-])C1=O` (stereo not drawn) [5-[[(E)-(3-methoxy-5-nitro-4-oxo-1-cyclohexa-2,5-dienylidene)methyl]hydrazo]-6-methyl-2H-1,2,4-triazin-3-one], for which the response was half-maximal at 7.98 µM (EC50).
The result for `COc1cc(OC)c(C2C3=C(CC(C)CC3=O)OC(=N)C2C#N)cc1OC` (stereo not drawn) [2-amino-4-asaryl-5-keto-7-methyl-4,6,7,8-tetrahydrochromene-3-carbonitrile] reads more than 300 µM; that for `N#CC1=C2CCOCC2C(c2cccnc2)C(C#N)(C#N)C1=N` (stereo not drawn) [6-Amino-8-pyridin-3-yl-8,8a-dihydro-1H,3H-isochromene-5,7,7-tricarbonitrile], more than 300 µM.
As for `CSc1nnc(N2C(=O)C(=O)C(C(=O)c3ccco3)C2c2cccc(Cl)c2)s1` (stereo not drawn) [2-(3-chlorophenyl)-3-(furan-2-carbonyl)-4-hydroxy-1-(5-methylsulfanyl-1,3,4-thiadiazol-2-yl)-2H-pyrrol-5-one], the EC50 was found to be 31.3 µM.
As to `COc1ccc(N2C(=O)NC(=O)C(=Cc3c[nH]c4ccc(Br)cc34)C2=O)c(OC)c1` [(5E)-5-[(5-bromo-1H-indol-3-yl)methylene]-1-(2,4-dimethoxyphenyl)pyrimidine-2,4,6(1H,3H,5H)-trione], the EC50 was more than 300 µM.
The result for `COc1ccc(OC)c(N2C(=O)NC(=O)C(=Cc3c[nH]c4ccccc34)C2=O)c1` [(5E)-1-(2,5-dimethoxyphenyl)-5-(1H-indol-3-ylmethylene)pyrimidine-2,4,6(1H,3H,5H)-trione] reads more than 300 µM.
In the case of `Oc1ccc(C=Nn2c(O)csc2=S)c(O)c1O` [3-[[(E)-[2,3-bis(oxidanyl)-4-oxidanylidene-cyclohexa-2,5-dien-1-ylidene]methyl]amino]-2-sulfanylidene-1,3-thiazolidin-4-one] it was 5.17 µM; in that of `O=C1NC(=O)N(CCc2ccc(F)cc2)C(=O)C1=CNCCCn1ccnc1` [(5E)-1-[2-(4-fluorophenyl)ethyl]-5-[(3-imidazol-1-ylpropylamino)methylene]barbituric acid], more than 300 µM; in that of `Cc1ncc(CO)c(CNNC(=O)C2=CC(=O)C(=O)C(=O)C2)c1O` [3,4,5-trihydroxy-N'-{(1E)-[3-hydroxy-5-(hydroxymethyl)-2-methylpyridin-4-yl]methylene}benzohydrazide], 71.2 µM.
In turn, `O=[N+]([O-])c1ccc(/N=N/c2ncc[nH]2)cc1` [N-(imidazol-2-ylideneamino)-4-nitroaniline] registered an EC50 of 69.1 µM.
`N#CC1C(=N)OC2=C(C(=O)CCC2)C1c1ccccc1` (stereo not drawn) [2-amino-5-keto-4-phenyl-4,6,7,8-tetrahydrochromene-3-carbonitrile] yielded a 50% effective concentration (EC50) of more than 300 µM.
On to `COc1ccc(C2CC(=O)C(=CNCCCO)C(=O)C2)cc1` (stereo not drawn) [2-[(3-hydroxypropylamino)methylidene]-5-(4-methoxyphenyl)cyclohexane-1,3-dione], for which a half-maximal effect (EC50) was put at 34.8 µM.
Consider `CC1=C(C#N)C(=O)N(C)C(=O)C1=CN` [(5Z)-5-(aminomethylidene)-1,4-dimethyl-2,6-dioxopyridine-3-carbonitrile], for which the EC50 was more than 300 µM.
In the case of `C=CCOc1cccc(C2C(C(=O)c3cc4ccccc4o3)C(=O)C(=O)N2c2cc(C)on2)c1` (stereo not drawn) [3-(1-benzofuran-2-carbonyl)-4-hydroxy-1-(5-methyl-1,2-oxazol-3-yl)-2-(3-prop-2-enoxyphenyl)-2H-pyrrol-5-one] it was more than 300 µM.
The result for `CCCCN1C(=O)/C(=C2/Sc3ccccc3N2C)SC1=Nc1nnc[nH]1` [SMR000282142] reads 58.7 µM.
Compound `Cc1sc2ncnc(N=NC(C)c3ccccn3)c2c1C` (stereo not drawn) [5,6-dimethyl-N-(1-pyridin-2-ylethylideneamino)thieno[2,3-d]pyrimidin-4-amine] showed a half-maximal effective concentration (EC50) of 23.3 µM.
In the case of `COc1cc(C2C3=C(CCCC3=O)OC(=N)C2C#N)ccc1OC(=O)N1CCOCC1` (stereo not drawn) [4-(2-amino-3-cyano-5-oxo-5,6,7,8-tetrahydro-4H-chromen-4-yl)-2-methoxyphenyl morpholine-4-carboxylate] it was more than 300 µM; in that of `Cc1ccc(C(=O)Cc2nc3cc(C)ccc3oc2=O)cc1` [(3Z)-3-[2-keto-2-(p-tolyl)ethylidene]-6-methyl-4H-1,4-benzoxazin-2-one], 7.64 µM.
`O=C1Nc2ccccc2/C1=N/NC(=S)Nc1ccc(O)cc1` [1-(4-hydroxyphenyl)-3-[(2-oxidanylideneindol-3-yl)amino]thiourea] had an EC50 of 16.3 µM.
In turn, `Cc1ccc(NNC2=Nc3ccccc3C2=O)cc1` [2-[(4-methylphenyl)hydrazo]-3-indolone] came in with an EC50 of 16 µM.
Turning to `Cc1n[nH]c(C)c1Sc1ccccc1/N=C/C1C=C(Cl)C=C([N+](=O)[O-])C1=O` (stereo not drawn) [(6E)-4-chloranyl-6-[[[2-[(3,5-dimethyl-1H-pyrazol-4-yl)sulfanyl]phenyl]amino]methylidene]-2-nitro-cyclohexa-2,4-dien-1-one], the EC50 is more than 300 µM.
Take `N#CC1C(=N)OC2=C(C(=O)CC(c3ccco3)C2)C1c1ccc(OCc2c(F)cccc2Cl)cc1` (stereo not drawn) [2-azanyl-4-[4-[(2-chloranyl-6-fluoranyl-phenyl)methoxy]phenyl]-7-(furan-2-yl)-5-oxidanylidene-4,6,7,8-tetrahydrochromene-3-carbonitrile]: the EC50 was more than 300 µM.
The result for `Cc1ccc(C2C(C(=O)c3ccco3)C(=O)C(=O)N2c2nnc(C)s2)cc1` (stereo not drawn) [3-(furan-2-carbonyl)-4-hydroxy-2-(4-methylphenyl)-1-(5-methyl-1,3,4-thiadiazol-2-yl)-2H-pyrrol-5-one] reads more than 300 µM; that for `CN(C)c1ccc(NC=C2C(=O)NC(=O)N(CCC3=CCCCC3)C2=O)cc1` [(5Z)-1-[2-(cyclohexen-1-yl)ethyl]-5-[[[4-(dimethylamino)phenyl]amino]methylidene]-1,3-diazinane-2,4,6-trione], more than 300 µM; that for `O=C(O)c1cc(-c2ccc(CN=Nc3ccc([N+](=O)[O-])cn3)o2)ccc1Cl` [2-chloro-5-[5-[[(5-nitropyridin-2-yl)hydrazinylidene]methyl]furan-2-yl]benzoic acid], 31 µM.
Turning to `Cc1ccc(CN=Nc2ncnc3nc[nH]c23)cc1` [MLS000419179], the EC50 is more than 300 µM.
In the case of `COc1ccc(C2C3=C(CC(C)(C)CC3=O)OC(=N)C2C#N)cc1` (stereo not drawn) [2-amino-4-(4-methoxyphenyl)-7,7-dimethyl-5-oxo-6,8-dihydro-4H-1-benzopyran-3-carbonitrile] it was 69.7 µM.
